In ChEMBL document CHEMBL4823252 (J Med Chem, 2021):
pIC50: −log10 of the molar value. Active and inactive are the calls of the source. No cut-off for these calls is given here.

Legend:
MOLM-13 [1] = assay: Induction of cell cycle arrest in human MOLM-13 cells assessed as accumulation at G1 phase at 100 nM incubated for 24 hrs by flow cytometry (reference value: 69.08%); type: functional
MOLM-13 [2] = assay: Induction of apoptosis in human MOLM-13 cells assessed as early apoptotic cells at 10 nM incubated for 24 hrs by flow cytometry (reference value: 2.18%); type: functional
MV4-11 [3] = assay: Induction of cell cycle arrest in human MV4-11 cells assessed as accumulation at G2/M phase at 10 nM incubated for 24 hrs by flow cytometry (reference value: 7.29%); type: functional
MV4-11 [4] = assay: Induction of apoptosis in human MV4-11 cells assessed as early apoptotic cells at 100 nM incubated for 24 hrs by flow cytometry (reference value: 0.31%); type: functional
MOLM-13 [5] = assay: Induction of cell cycle arrest in human MOLM-13 cells assessed as accumulation at sub-G1 phase at 10 nM incubated for 24 hrs by flow cytometry (reference value: 4.24%); type: functional
MV4-11 [6] = assay: Induction of apoptosis in human MV4-11 cells assessed as viable cells at 100 nM incubated for 24 hrs by flow cytometry (reference value: 98.86%); type: functional; settings: read-out: Activity
MOLM-13 [7] = assay: Antiproliferative activity against human quizartinib-resistant MOLM-13 cells at 1 nM incubated for 72 hrs by CCK8 assay relative to control; type: functional
MV4-11 [8] = assay: Induction of apoptosis in human MV4-11 cells assessed as necrotic cells at 100 nM incubated for 24 hrs by flow cytometry (reference value: 0.25%); type: functional
MOLM-13 [9] = assay: Induction of apoptosis in human MOLM-13 cells assessed as early apoptotic cells at 100 nM incubated for 24 hrs by flow cytometry (reference value: 2.18%); type: functional
MV4-11 [10] = assay: Induction of apoptosis in human MV4-11 cells assessed as late apoptotic cells at 10 nM incubated for 24 hrs by flow cytometry (reference value: 0.58%); type: functional
MOLM-13 [11] = assay: Antiproliferative activity against human sunitinib-resistant MOLM-13 cells at 4 nM incubated for 72 hrs by CCK8 assay relative to control; type: functional
MOLM-13 [12] = assay: Induction of apoptosis in human MOLM-13 cells assessed as necrotic cells at 10 nM incubated for 24 hrs by flow cytometry (reference value: 0.45%); type: functional
MOLM-13 [13] = assay: Antiproliferative activity against human sunitinib-resistant MOLM-13 cells at 37 nM incubated for 72 hrs by CCK8 assay relative to control; type: functional
[14] = Oral bioavailability in Sprague-Dawley rat at 10 mg/kg; type: ADME, organism-based; settings: in vivo
[15] = MRT (0 to last) in Sprague-Dawley rat at 1 mg/kg, iv; type: ADME, organism-based; settings: in vivo
Homo sapiens = species: Homo sapiens; assay: Binding affinity to FLT3 ITD F691L mutant (unknown origin) at 1000 nM relative to control
[16] = system: Receptor-type tyrosine-protein kinase FLT3 (Homo sapiens), P36888 [D835Y]; assay: Binding affinity to FLT3 D835Y mutant (unknown origin) at 1000 nM relative to control
[17] = Toxicity in mouse xenografted with human MV4-11 cells assessed as effect on kidney at 2.5 to 10 mg/kg, po administered for 16 days by hematoxylin and eosin staining assay; type: organism-based; settings: in vivo, 384 h, dose 2.5-10 mg/kg, time 16 day
MOLM-13 [18] = assay: Induction of cell cycle arrest in human MOLM-13 cells assessed as accumulation at G2/M phase at 100 nM incubated for 24 hrs by flow cytometry (reference value: […]); type: functional
MOLM-13 [19] = assay: Induction of apoptosis in human MOLM-13 cells assessed as early apoptotic cells at 1 nM incubated for 24 hrs by flow cytometry (reference value: 2.18%); type: functional
MV4-11 [20] = assay: Induction of cell cycle arrest in human MV4-11 cells assessed as accumulation at sub-G1 phase at 10 nM incubated for 24 hrs by flow cytometry (reference value: […]%); type: functional
MV4-11 [21] = assay: Induction of cell cycle arrest in human MV4-11 cells assessed as accumulation at sub-G1 phase at 1 nM incubated for 24 hrs by flow cytometry (reference value: […]%); type: functional
MOLM-13 [22] = assay: Antitumor activity against human MOLM-13 cells xenografted in po dosed mouse assessed as tumor growth inhibition administered for 20 days measured once every 2 days; type: functional, organism-based; settings: time 20.0 day
MOLM-13 [23] = assay: Induction of apoptosis in human MOLM-13 cells incubated for 24 hrs by flow cytometry; type: functional, cell-based
[24] = system: Receptor-type tyrosine-protein kinase FLT3 (Homo sapiens), P36888 [N841I]; assay: Binding affinity to FLT3 N841I mutant (unknown origin) at 1000 nM relative to control
HT-29 = assay: Antiproliferative activity against human HT-29 cells measured after 72 hrs by CCK8 assay; type: functional, cell-based; settings: HT-29, 72 h
[25] = system: Receptor-type tyrosine-protein kinase FLT3 (Homo sapiens), P36888 [K663Q]; assay: Binding affinity to FLT3 K663Q mutant (unknown origin) at 1000 nM relative to control
[26] = system: Receptor-type tyrosine-protein kinase FLT3 (Homo sapiens), P36888 [D835H]; assay: Binding affinity to FLT3 D835H mutant (unknown origin) at 1000 nM relative to control
MV4-11 [27] = assay: Induction of apoptosis in human MV4-11 cells incubated for 24 hrs by flow cytometry; type: functional, cell-based
MV4-11 [28] = assay: Antitumor activity against human MV4-11 cells xenografted in po dosed mouse assessed as tumor growth inhibition administered for 20 days measured once every 2 days; type: functional, organism-based; settings: time 20.0 day
HeLa = assay: Antiproliferative activity against human HeLa cells measured after 72 hrs by CCK8 assay; type: functional, cell-based
[29] = target: Receptor-type tyrosine-protein kinase FLT3 (Homo sapiens, UniProt P36888, D835Y); assay: Inhibition of FLT3 D835Y mutant (unknown origin) incubated for 30 mins in presence of ATP by mobility shift assay
MOLM-13 [30] = assay: Antitumor activity against human MOLM-13 cells xenografted in po dosed mouse assessed as induction of apoptosis administered for 16 days measured once for every 2 days by caspase3 staining based immunohistochemical analysis; type: functional, organism-based; settings: time 16.0 day
[31] = system: Receptor-type tyrosine-protein kinase FLT3 (Homo sapiens), P36888 [UNDEFINED MUTATION]; assay: Binding affinity to FLT3 ITD mutant (unknown origin) at 1000 nM relative to control
[32] = AUC (0 to infinity) in Sprague-Dawley rat at 10 mg/kg, po; type: ADME, organism-based; design: route oral, time infinity, dose 10 mg/kg; settings: in vivo
[33] = target: Vascular endothelial growth factor receptor 1 (Homo sapiens, UniProt P17948); assay: Inhibition of VEGFR1 (unknown origin) incubated for 30 mins in presence of ATP by mobility shift assay
U-937 = assay: Antiproliferative activity against human U-937 cells measured after 72 hrs by CCK8 assay; type: functional, cell-based; settings: U-937, 72 h
[34] = target: Receptor-type tyrosine-protein kinase FLT3 (Homo sapiens, UniProt P36888, ITD); assay: Inhibition of FLT3 ITD mutant (unknown origin) incubated for 30 mins in presence of ATP by mobility shift assay
[35] = Toxicity in mouse xenografted with human MOLM-13 cells assessed as effect on spleen at 10 to 40 mg/kg, po administered for 20 days by hematoxylin and eosin staining assay; type: organism-based; settings: in vivo, 480 h, dose 10-40 mg/kg, time 20 day

Sequence of Vascular endothelial growth factor receptor 1 (P17948 whole entry): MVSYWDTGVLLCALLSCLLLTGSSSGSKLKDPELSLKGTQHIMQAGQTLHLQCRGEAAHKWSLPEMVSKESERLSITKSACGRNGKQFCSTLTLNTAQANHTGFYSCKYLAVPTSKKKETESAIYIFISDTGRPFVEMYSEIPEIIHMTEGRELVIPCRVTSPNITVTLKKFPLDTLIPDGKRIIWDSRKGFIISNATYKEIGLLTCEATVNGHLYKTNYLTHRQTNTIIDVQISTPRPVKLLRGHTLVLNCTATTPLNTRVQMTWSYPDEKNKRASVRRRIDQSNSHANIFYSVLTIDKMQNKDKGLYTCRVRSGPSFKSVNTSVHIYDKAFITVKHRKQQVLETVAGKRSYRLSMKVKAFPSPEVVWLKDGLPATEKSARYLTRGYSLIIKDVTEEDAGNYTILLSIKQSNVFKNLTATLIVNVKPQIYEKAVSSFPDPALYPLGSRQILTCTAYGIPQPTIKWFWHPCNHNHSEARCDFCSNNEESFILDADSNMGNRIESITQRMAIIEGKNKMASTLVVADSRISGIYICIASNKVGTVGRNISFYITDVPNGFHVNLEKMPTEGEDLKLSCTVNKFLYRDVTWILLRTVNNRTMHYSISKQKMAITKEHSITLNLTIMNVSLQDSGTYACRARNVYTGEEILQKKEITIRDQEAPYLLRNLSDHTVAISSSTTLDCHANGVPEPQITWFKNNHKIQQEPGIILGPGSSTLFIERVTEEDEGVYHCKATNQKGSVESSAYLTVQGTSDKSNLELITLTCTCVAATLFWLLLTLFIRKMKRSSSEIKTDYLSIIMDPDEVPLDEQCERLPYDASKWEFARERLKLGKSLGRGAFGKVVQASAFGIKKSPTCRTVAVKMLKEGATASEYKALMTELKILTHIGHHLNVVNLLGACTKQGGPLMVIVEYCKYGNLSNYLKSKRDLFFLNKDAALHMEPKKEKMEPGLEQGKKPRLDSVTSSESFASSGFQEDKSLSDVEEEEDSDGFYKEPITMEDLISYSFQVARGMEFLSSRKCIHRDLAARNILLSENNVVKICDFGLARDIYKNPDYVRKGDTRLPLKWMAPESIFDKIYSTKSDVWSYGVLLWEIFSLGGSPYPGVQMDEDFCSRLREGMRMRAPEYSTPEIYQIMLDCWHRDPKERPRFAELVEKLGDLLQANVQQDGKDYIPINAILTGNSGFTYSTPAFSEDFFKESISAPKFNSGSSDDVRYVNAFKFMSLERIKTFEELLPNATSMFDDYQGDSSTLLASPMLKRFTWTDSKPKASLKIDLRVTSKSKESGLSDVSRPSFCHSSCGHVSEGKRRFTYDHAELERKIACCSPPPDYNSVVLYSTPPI

CCN(CC)CCNC(=O)c1c(C)[nH]c(/C=C2\C(=O)Nc3ccc(F)cc32)c1C [SUNITINIB]
Activity (MOLM-13 [1]): 41.02% | Activity (MOLM-13 [2]): 19.36% | Activity (MV4-11 [3]): 2.53% | Activity (MV4-11 [4]): 9.64% | Activity (MOLM-13 [5]): 24.17% | viability at 0.1 µM (MV4-11 [6]): 80.1% | Activity (MOLM-13 [7]): 0.5% | Activity (MV4-11 [8]): 1.71% | Activity (MOLM-13 [9]): 31.1% | Activity (MV4-11 [10]): 6.58% | Activity (MOLM-13 [11]): 0.9% | Activity (MOLM-13 [12]): 0.4% | Activity (MOLM-13 [13]): 2.6%

Cc1c(NC(=O)CCN2CCCC2)c[nH]c1/C=C1\C(=O)Nc2ccc(F)cc21
bioavailability [14]: 73.6% | MRT last [15]: 4 h | Activity (Homo sapiens): Active | Activity [16]: Active | Activity [17]: Non-Toxic | Activity (MOLM-13 [1]): 47.75% | Activity (MOLM-13 [2]): 22.66% | Activity (MOLM-13 [18]): 0.9% | Activity (MOLM-13 [19]): 3.69% | Activity (MV4-11 [3]): 2% | Activity (MV4-11 [20]): 28.68% | Activity (MV4-11 [21]): 13.92% | Activity (MOLM-13 [22]): Dose-Dependent Effect | Activity (MV4-11 [4]): 17.98% | Activity (MOLM-13 [23]): Dose-Dependent Effect | Activity (MOLM-13 [5]): 30.16% | Activity [24]: Active | pIC50 (HT-29): 5.81 | Activity [25]: Active | viability at 0.1 µM (MV4-11 [6]): 71.7% | Activity [26]: Active | Activity (MV4-11 [27]): Dose-Dependent Effect | Activity (MOLM-13 [7]): 1.5% | Activity (MV4-11 [8]): 1.57% | Activity (MV4-11 [28]): Dose-Dependent Effect | pIC50 (HeLa): 5.71 | pIC50 [29]: 8.72 | Activity (MOLM-13 [9]): 34.68% | Activity (MOLM-13 [30]): Dose-Dependent Effect | Activity (MV4-11 [10]): 6.55% | Activity (MOLM-13 [11]): 3.3% | Activity [31]: Active | AUC(0-inf) [32]: 22700 ng·h/mL | Activity (MOLM-13 [12]): 0.52% | pIC50 [33]: 6.92 | Activity (MOLM-13 [13]): 4.7% | pIC50 (U-937): 5.28 | pIC50 [34]: 9.10 | Activity [35]: Non-Toxic
